The values below come from article PMC7692187, “Rapid In Vivo Validation of HDAC Inhibitor-Based Treatments in Neuroblastoma Zebrafish Xenografts” (Pharmaceuticals, 2020).

Series [1] deals with xenografted tumor cells. Put plainly: Dose response in zebrafish xenografts: relative IC50 from the change in tumor volume. The settings on record: Danio rerio, compared to solvent, drug applied to surrounding water, n = 3–5 fish per concentration. The class given is in vivo, human. As for the experimental part: (§1) To determine optimal drug concentrations, larvae bearing xenografted tumor cells were incubated with increasing drug concentrations 24 h post implantation (hpi), ranging from the concentrations used in previous cell culture experiments to the MTD(larvae) (Figure 2a). […] Using these concentrations, we evaluated whether HDACis were able to reach their specific enzymatic targets.
(§2) Right: representative images of immunohistochemical staining (c) Left: quantification of staining for acetylated histone H3. Right: representative images of immunohistochemical staining.
(§3) For treatment, larvae were incubated in freshly prepared buffer solution supplemented with 0.2 mM PTU, containing the drug of interest at increasing concentrations. Drug-containing solutions were administered at the beginning of the experiment and were not replaced during the incubation period. Solvent control was applied in the same manner as the drug treatments.

Series [2] deals with zebrafish larvae. The series can be described thus: Toxicity test: three-day treatment of fish larvae without injection of tumor cells. The class given is in vivo, zebrafish (Danio rerio). The settings on record: three-day incubation time at 34 °C, drug in buffer. As to the method:
as §3

Series [3] has as its system cleaved caspase-3. Put plainly: IHC staining for cleaved caspase-3 in SK-N-BE(2)-C zebrafish xenografts. The settings on record: 48 h exposure, compared to solvent-treated control. It is filed as in vivo, human. As for the experimental part:
(§4) Due to this relatively short treatment duration (48 h), the apoptosis induction of the combination therapy is predominant over the antiproliferative effect.
(§5) Left panel: representative images of sections stained against cleaved caspase-3. […] The number of positive cells was calculated as the ratio of positive to total cells counted, relative to solvent. […] (b) Left panel: representative images of sections stained against phospho-histone H3, a marker specific for cells undergoing mitosis. […] The number of positive cells (%) was calculated as the ratio of positive to total cells counted.
(§6) Following fixation (24 h at 4 °C) in Special Fixative for Anatomy and Histology (Morphisto, Frankfurt am Main, Germany), xenografted zebrafish larvae were transferred to embedding cassettes equipped with biopsy pads, dehydrated, and infiltrated with paraffin. […] FIJI software and a macro program were employed for quantitative analysis of the xenograft slides, while the analysis of slides obtained from neuroblastoma patients was carried out manually. All quantitative analyses were performed in a blinded fashion on the xenograft slides (five tissue sections per zebrafish larva), which were obtained from at least two xenotransplantation replicates.

The test system of series [4] is phospho-histone H3. The series can be described thus: IHC staining for phospho-histone H3 (pHH3) in SK-N-BE(2)-C zebrafish xenografts. It is filed as in vivo, human. The settings on record: 48 h exposure; solvent-treated 47%. As for the experimental part: as §4, §5, §6
For series [5], the system named is acetylated α-tubulin (substrate of HDAC6). The series can be described thus: IHC staining for acetylated α-tubulin in SK-N-BE(2)-C zebrafish xenografts. The class given is in vivo, human. The settings on record: 50 µM, 48 h, SK-N-BE(2)-C xenografts, versus solvent. As for the experimental part:
as §1, §2
(§7) Following fixation (24 h at 4 °C) in Special Fixative for Anatomy and Histology (Morphisto, Frankfurt am Main, Germany), xenografted zebrafish larvae were transferred to embedding cassettes equipped with biopsy pads, dehydrated, and infiltrated with paraffin. Briefly, fixed larvae were dehydrated using Leica ASP300S tissue processor (Leica Biosystems, Wetzlar, Germany) through incubation in aqueous solutions of increasing ethanol concentration (1 h in 50% ethanol, 2 h in 70% ethanol, 2 h in 80% ethanol, 1 h in 96% ethanol, 3 h in absolute ethanol) and thereafter incubated with xylene for 5 h. Next, samples were transferred to liquid paraffin at 60 °C and allowed to infiltrate for 5 h.

The test system of series [6] is SK-N-BE(2)-C cells. The series can be described thus: Doxorubicin accumulation in engrafted tumor cells and zebrafish tissues. It is filed as in vivo, human. The settings on record: tubastatin A 50 µM with doxorubicin 110 ng/mL, 48 h, relative to doxorubicin alone.
Experimental: Doxorubicin has an intrinsic fluorescence due to the presence of a hydroxy-substituted anthraquinone chromophore.
(b,c) Representative images (b) and quantification (c) of zebrafish larvae engrafted with Hoechst stained and doxorubicin-treated SK-N-BE(2)-C cells. Larvae, except of unstained larvae, were exposed for 48 h to doxorubicin (red fluorescence) and tubastatin A or solvent. Red fluorescence of doxorubicin was visualized by confocal microscopy and normalized to tumor area. Results are presented as log2 fold change (FC) relative to doxorubicin alone. […] One-way ANOVA with Tukey’s multiple comparison test, scale bar = 50 µm.
SK-N-BE(2)-C cells were incubated with Hoechst nucleic acid dye (Thermo Fisher Scientific) at a concentration of 10 µg/mL for 30 min at 37 °C. […]
Zebrafish larvae engrafted with Hoechst-stained SK-N-BE(2)-C cells were exposed to solvent, doxorubicin, or doxorubicin combined with tubastatin A for 48 h. Red fluorescence of doxorubicin was visualized by confocal microscopy. Doxorubicin has an intrinsic fluorescence due to the presence of a hydroxy-substituted anthraquinone chromophore, with typical excitation and emission maxima in the range of 500 nm and 552–585 nm, respectively. Total fluorescence intensity in the tumor area (determined by nuclear staining) was defined as that above the threshold set by the solvent group and was quantified using a macro program.
Series [7] concerns acetylated histone H3 (substrate of HDAC1–3). The series can be described thus: IHC staining for acetylated histone H3 in SK-N-BE(2)-C zebrafish xenografts. The settings on record: 48 h exposure at IC50 concentrations (tubastatin A 50 µM), SK-N-BE(2)-C xenografts. It is filed as in vivo, human. As to the method:
as §1, §2, §7

`Cc1[nH]c2ccccc2c1CCNCc1ccc(/C=C/C(=O)NO)cc1` [panobinostat] came in with an IC50 in series [1] (48 h treatment from 24 hpi) of 0.2 µM. Moreover, the “Maximum Tolerated Dose (MTD)” value in series [2] turned out to be 1 µM.
Consider `O=C(CCCCCCC(=O)Nc1ccccc1)NO` [vorinostat], for which the “Maximum Tolerated Dose (MTD)” value in series [2] came to 100 µM. For the same molecule, in series [3], the “number of cells positive for cleaved caspase-3” value was “increased”. In addition, in series [4], the “average number of tumor cells per slide positive for pHH3” value is on record as 30%.
On to `CN1CCc2c(c3ccccc3n2Cc2ccc(C(=O)NO)cc2)C1` [tubastatin A], for which the “increase of acetylated α-tubulin” value in series [5] was 5 fold. Also, the “doxorubicin accumulation in zebrafish tissues and engrafted tumor cells” value in series [6] was “increased”. The molecule further came in with an IC50 in series [1] (48 h treatment from 24 hpi) of 50 µM. Further, the “Maximum Tolerated Dose (MTD)” value in series [2] was determined as 200 µM. Moreover, the “cells stained positive for ac-histone H3” value in series [7] is recorded as “not acetylated H3”.
With `COc1cccc2c1C(=O)c1c(O)c3c(c(O)c1C2=O)C[C@@](O)(C(=O)CO)C[C@@H]3O[C@H]1C[C@H](N)[C@H](O)[C@H](C)O1` [doxorubicin], the IC50 in series [1] (48 h treatment) amounted to 0.11 µg/mL. The “Maximum Tolerated Dose (MTD)” value in series [2] was 500 ng/mL. In addition, in series [3], the “number of cells positive for cleaved caspase-3” value was “increased”. In series [4], the “average number of tumor cells per slide positive for pHH3” value is on record as 38%.
